Reference: ChEMBL document CHEMBL4480380, “Identification and biological evaluation of novel benzothiazole derivatives bearing a pyridine-semicarbazone moiety as apoptosis inducers via activation of procaspase-3 to caspase-3” (Medchemcomm, 2019)
Calls of active or inactive are those of the source. No cut-off for these calls is given here.

Columns and labels:
U-937 [1] = assay: Induction of apoptosis in human U937 cells assessed as caspase-3 activity at 30 uM using Ac-DEVD-AFC as substrate preincubated for 16 hrs followed by substrate addition and measured after 60 mins by fluorescence assay (reference value: 7+/- 1%); assay type: functional
MCF7 = assay: Antiproliferative activity against human MCF7 cells after 24 hrs by CCK-8 assay; assay type: functional, cell-based; settings: MCF7, 24 h
[2] = Selectivity ratio of IC50 for human MCF7 cells to IC50 for human procaspase-3 over-expressing U937 cells; assay type: functional
U-937 [3] = assay: Antiproliferative activity against human procaspase-3 over-expressing U937 cells after 24 hrs by CCK-8 assay; assay type: functional, cell-based; settings: U-937, 24 h
U-937 [4] = assay: Induction of apoptosis in human U937 cells assessed as early apoptotic cells at 5.2 uM after 24 hrs by Annexin V-FITC/propidium iodide staining-based flow cytometric analysis (reference value: 4.88%); assay type: functional
U-937 [5] = assay: Induction of apoptosis in human U937 cells assessed as late apoptotic cells at 2.6 uM after 24 hrs by Annexin V-FITC/propidium iodide staining-based flow cytometric analysis (reference value: 3.27%); assay type: functional
U-937 [6] = assay: Induction of apoptosis in human U937 cells assessed as early apoptotic cells at 2.6 uM after 48 hrs by Annexin V-FITC/propidium iodide staining-based flow cytometric analysis (reference value: 6.16%); assay type: functional
U-937 [7] = assay: Induction of apoptosis in human U937 cells assessed as late apoptotic cells at 2.6 uM after 48 hrs by Annexin V-FITC/propidium iodide staining-based flow cytometric analysis (reference value: 3.89%); assay type: functional
[8] = Toxicity in zebrafish AB embryos at 5 to 20 uM measured at 24 to 72 hrs post fertilization by stereo microscopic analysis; design: species or system Danio rerio; settings: in vivo
U-937 [9] = assay: Induction of apoptosis in human U937 cells assessed as early apoptotic cells at 5.2 uM after 48 hrs by Annexin V-FITC/propidium iodide staining-based flow cytometric analysis (reference value: 6.16%); assay type: functional
Caspase-3 (Homo sapiens) = molecular target: T1, Caspase-3 (Homo sapiens) (UniProt P42574); assay: Activation of procaspase-3 (unknown origin) at 10 uM using Ac-DEVD-AFC as substrate preincubated for 4 hrs followed by substrate addition and measured after 5 mins by fluorescence assay relative to control
T1 sequence (whole entry): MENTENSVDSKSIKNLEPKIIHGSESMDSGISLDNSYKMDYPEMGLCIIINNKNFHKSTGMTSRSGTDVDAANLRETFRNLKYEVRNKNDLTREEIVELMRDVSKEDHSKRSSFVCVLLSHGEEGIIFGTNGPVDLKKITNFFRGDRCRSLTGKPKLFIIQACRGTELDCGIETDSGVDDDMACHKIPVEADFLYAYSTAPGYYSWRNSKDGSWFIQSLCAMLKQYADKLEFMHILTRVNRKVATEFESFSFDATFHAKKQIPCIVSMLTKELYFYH

[10] = Half life in mouse liver microsomes in presence of NADPH by LC-MS analysis; assay type: ADME, Microsome
[11] = Intrinsic clearance in human liver microsomes in presence of NADPH by LC-MS analysis; assay type: ADME, Microsome; settings: read-out: CLH
Danio rerio [12] = organism: Danio rerio; assay: Induction of apoptosis in zebrafish AB embryos assessed as increase in bax mRNA expression at 40 to 60 uM after 24 hrs post fertilization by RT-PCR analysis; assay type: functional, organism-based
[13] = Intrinsic clearance in mouse liver microsomes in presence of NADPH by LC-MS analysis; assay type: ADME, Microsome; settings: read-out: CLH
[14] = Intrinsic clearance in rat liver microsomes in presence of NADPH by LC-MS analysis; assay type: ADME, Microsome; settings: read-out: CLH
[15] = Half life in human liver microsomes in presence of NADPH by LC-MS analysis; assay type: ADME, Microsome
U-937 [16] = assay: Induction of apoptosis in human U937 cells assessed as late apoptotic cells at 5.2 uM after 48 hrs by Annexin V-FITC/propidium iodide staining-based flow cytometric analysis (reference value: 3.89%); assay type: functional
Danio rerio [17] = organism: Danio rerio; assay: Induction of apoptosis in zebrafish AB embryos assessed as accumulation of dying cells in head at 40 to 60 uM after 24 hrs post fertilization by acridine orange staining-based fluorescence microscopic analysis; assay type: functional, organism-based
U-937 [18] = assay: Induction of apoptosis in human U937 cells assessed as late apoptotic cells at 5.2 uM after 24 hrs by Annexin V-FITC/propidium iodide staining-based flow cytometric analysis (reference value: 3.27%); assay type: functional
Danio rerio [19] = organism: Danio rerio; assay: Induction of apoptosis in zebrafish AB embryos assessed as accumulation of dying cells in cranial neural crest at 40 to 60 uM after 24 hrs post fertilization by acridine orange staining-based fluorescence microscopic analysis; assay type: functional, organism-based
U-937 [20] = assay: Induction of apoptosis in human U937 cells assessed as early apoptotic cells at 2.6 uM after 24 hrs by Annexin V-FITC/propidium iodide staining-based flow cytometric analysis (reference value: 4.88%); assay type: functional
[21] = Toxicity in zebrafish AB embryos assessed as induction of mortality at 40 uM after 72 hrs post fertilization by stereo microscopic analysis; design: species or system Danio rerio; settings: in vivo
[22] = Half life in rat liver microsomes in presence of NADPH by LC-MS analysis; assay type: ADME, Microsome

SMILES	Activity (U-937 [1]) [%]	IC50 (MCF7) [µM]	Ratio IC50 [2]	IC50 (U-937 [3]) [µM]	other results
CN(C)Cc1ccc2nc(NC(=O)NN=C(c3ccccn3)c3ccccn3)sc2c1	104	> 40	5.1	7.8	–
C/C(=N\NC(=O)Nc1nc2ccc(CN3CCC(C)CC3)cc2s1)c1ccccn1	99	12.4	2.3	5.2	Activity (U-937 [4]): 19.79%; Activity (U-937 [5]): 6.3%; Activity (U-937 [6]): 19.59%; Activity (U-937 [7]): 9.17%; Activity [8]: Non-Toxic; Activity (U-937 [9]): 28.06%; Activity (Caspase-3 (Homo sapiens)): 77.8%; half-life [10]: 0.894 h; CLint scaled [11]: 22.3 mL/min/kg; Activity (Danio rerio [12]): Active; CLint scaled [13]: 102 mL/min/kg; CLint scaled [14]: 26 mL/min/kg; half-life [15]: 1.3 h; Activity (U-937 [16]): 18.7%; Activity (Danio rerio [17]): Active; Activity (U-937 [18]): 8.15%; Activity (Danio rerio [19]): Active; Activity (U-937 [20]): 16.16%; Activity [21]: Toxic; half-life [22]: 1.59 h
CC1CCN(Cc2ccc(NC(=O)NN=C(c3ccccc3)c3ccccc3)cc2)CC1	58	13.3	<1	> 25	–
CCN(CC)Cc1ccc2nc(NC(=O)N/N=C/c3ccccn3)sc2c1	–	> 40	1.6	24.8	–
CCN(CC)Cc1ccc(NC(=O)NN=C(c2ccccc2)c2ccccc2)cc1	20	13.1	<1	> 25	–
CCN(CC)Cc1ccc2nc(NC(=O)N/N=C(\C)c3ccccn3)sc2c1	–	> 40	2.6	15.6	–
CN(C)Cc1ccc(NC(=O)N/N=C/c2ccccn2)cc1	–	> 40	–	> 40	–
CN(C)Cc1ccc(NC(=O)NN=C(c2ccccn2)c2ccccn2)cc1	–	> 40	–	> 40	–
CCN(CC)Cc1ccc2nc(NC(=O)N/N=C(\C)c3cnccn3)sc2c1	–	> 40	–	> 40	–
C/C(=N\NC(=O)Nc1ccc(CN2CCC(C)CC2)cc1)c1cnccn1	–	> 40	–	> 40	–
CC1CCN(Cc2ccc(NC(=O)N/N=C/c3ccccn3)cc2)CC1	–	> 40	–	> 40	–
C/C(=N\NC(=O)Nc1nc2ccc(CN(C)C)cc2s1)c1cnccn1	–	> 40	–	> 40	–
CC1CCN(Cc2ccc3nc(NC(=O)N/N=C/c4ccccn4)sc3c2)CC1	–	> 40	1.6	21.5	–
